Converted amounts (≈) assume the structure as drawn.
Legend:
[1] = molecular target: Toll-like receptor 4 (Homo sapiens) (UniProt O00206); experiment: Inhibition of human TLR4 at 1 uM relative to control
[2] = molecular target: T1, Nucleotide-binding oligomerization domain-containing protein 2 (Mus musculus) (UniProt Q8K3Z0); experiment: Inhibition of mouse NOD2 at 1 uM relative to control
T1 sequence (whole entry): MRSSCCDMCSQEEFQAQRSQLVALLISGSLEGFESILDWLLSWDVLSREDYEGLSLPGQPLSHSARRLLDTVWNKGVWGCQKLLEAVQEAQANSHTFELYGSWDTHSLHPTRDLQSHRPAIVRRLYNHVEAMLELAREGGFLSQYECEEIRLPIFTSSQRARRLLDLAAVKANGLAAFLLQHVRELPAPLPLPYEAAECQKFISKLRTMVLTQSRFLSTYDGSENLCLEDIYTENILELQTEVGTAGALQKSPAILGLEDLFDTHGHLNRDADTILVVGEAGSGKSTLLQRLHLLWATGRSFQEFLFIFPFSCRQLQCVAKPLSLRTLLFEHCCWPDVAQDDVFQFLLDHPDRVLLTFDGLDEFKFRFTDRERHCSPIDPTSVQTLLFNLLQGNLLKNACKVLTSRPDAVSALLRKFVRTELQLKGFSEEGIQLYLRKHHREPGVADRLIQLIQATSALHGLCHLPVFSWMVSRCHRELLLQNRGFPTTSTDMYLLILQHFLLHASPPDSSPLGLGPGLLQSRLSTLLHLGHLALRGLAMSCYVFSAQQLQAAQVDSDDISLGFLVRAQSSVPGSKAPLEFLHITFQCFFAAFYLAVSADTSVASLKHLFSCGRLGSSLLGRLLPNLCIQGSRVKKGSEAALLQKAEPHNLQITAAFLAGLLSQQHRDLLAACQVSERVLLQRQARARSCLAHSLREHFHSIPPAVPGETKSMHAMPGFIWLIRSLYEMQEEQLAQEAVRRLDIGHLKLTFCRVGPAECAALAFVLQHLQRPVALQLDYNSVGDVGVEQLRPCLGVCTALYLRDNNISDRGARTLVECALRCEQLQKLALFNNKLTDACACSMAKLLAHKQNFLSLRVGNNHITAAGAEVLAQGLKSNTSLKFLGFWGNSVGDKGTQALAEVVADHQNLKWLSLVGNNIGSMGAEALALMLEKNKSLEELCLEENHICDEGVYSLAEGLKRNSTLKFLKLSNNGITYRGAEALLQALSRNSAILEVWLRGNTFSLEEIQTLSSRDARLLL

[3] = molecular target: Receptor-interacting serine/threonine-protein kinase 2 (Homo sapiens) (UniProt O43353); experiment: Inhibition of RIP2 (unknown origin) at 10 uM relative to control
Sequence of Receptor-interacting serine/threonine-protein kinase 2 (Homo sapiens) (O43353 whole entry, the tested form may be a part): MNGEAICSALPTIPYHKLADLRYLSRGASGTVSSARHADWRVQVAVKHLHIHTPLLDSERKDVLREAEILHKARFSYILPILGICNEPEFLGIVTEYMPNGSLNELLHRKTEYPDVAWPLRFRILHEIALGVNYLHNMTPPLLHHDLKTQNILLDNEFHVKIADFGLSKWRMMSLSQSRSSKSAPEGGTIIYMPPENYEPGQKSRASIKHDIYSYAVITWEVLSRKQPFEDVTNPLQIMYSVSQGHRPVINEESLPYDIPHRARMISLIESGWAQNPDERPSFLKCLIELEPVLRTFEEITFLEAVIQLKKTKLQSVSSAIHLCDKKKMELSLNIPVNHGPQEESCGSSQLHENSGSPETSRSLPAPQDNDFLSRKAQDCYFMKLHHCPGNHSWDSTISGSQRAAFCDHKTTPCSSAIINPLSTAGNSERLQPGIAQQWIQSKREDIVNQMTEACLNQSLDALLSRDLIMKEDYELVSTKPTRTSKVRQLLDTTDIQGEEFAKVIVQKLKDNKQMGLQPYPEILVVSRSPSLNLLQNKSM

[4] = molecular target: T2, Nucleotide-binding oligomerization domain-containing protein 1 (Mus musculus) (UniProt Q8BHB0); experiment: Antagonist activity at mouse NOD1 expressed in HEK-Blue cells assessed as decrease in SEAP secretion at 1 uM incubated for 3 hrs followed by C12-iE-DAP stimulation for 20 hrs by spectrophotometry relative to control; format: cell-based; conditions: HEK-Blue mNOD1, filed as antagonist, time 23.0 hrs
T2 sequence (whole entry): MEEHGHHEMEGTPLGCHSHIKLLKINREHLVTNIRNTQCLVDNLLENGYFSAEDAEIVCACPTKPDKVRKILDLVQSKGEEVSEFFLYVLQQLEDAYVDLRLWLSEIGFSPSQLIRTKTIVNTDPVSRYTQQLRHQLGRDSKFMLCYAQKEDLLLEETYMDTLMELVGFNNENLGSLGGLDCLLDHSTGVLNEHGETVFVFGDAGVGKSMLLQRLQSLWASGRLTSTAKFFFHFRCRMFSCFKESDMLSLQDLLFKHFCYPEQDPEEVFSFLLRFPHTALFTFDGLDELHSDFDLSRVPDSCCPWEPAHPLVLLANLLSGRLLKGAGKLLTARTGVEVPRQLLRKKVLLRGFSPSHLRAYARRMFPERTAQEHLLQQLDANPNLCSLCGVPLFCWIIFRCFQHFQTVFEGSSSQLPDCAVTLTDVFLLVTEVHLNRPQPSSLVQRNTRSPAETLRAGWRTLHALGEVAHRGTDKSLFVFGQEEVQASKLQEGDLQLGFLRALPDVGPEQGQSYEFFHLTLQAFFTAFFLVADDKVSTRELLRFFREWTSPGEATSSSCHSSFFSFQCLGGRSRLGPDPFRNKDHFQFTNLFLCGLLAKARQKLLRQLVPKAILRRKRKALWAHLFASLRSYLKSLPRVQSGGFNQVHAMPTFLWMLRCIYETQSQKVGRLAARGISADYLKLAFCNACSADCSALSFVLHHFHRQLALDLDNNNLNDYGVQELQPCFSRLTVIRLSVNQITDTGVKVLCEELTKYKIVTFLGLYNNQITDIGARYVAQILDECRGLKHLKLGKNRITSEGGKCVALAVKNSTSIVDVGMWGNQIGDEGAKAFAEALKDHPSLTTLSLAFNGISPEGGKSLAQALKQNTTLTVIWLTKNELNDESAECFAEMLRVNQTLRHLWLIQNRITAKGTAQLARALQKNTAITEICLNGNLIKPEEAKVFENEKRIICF

[5] = Metabolic stability in mouse liver microsomes assessed as half life at 1.25 uM preincubated for 5 mins followed by NADPH addition measured upto 120 mins by LC-MS/MS analysis; format: ADME, Microsome; conditions: time < 125 min
[6] = molecular target: Toll-like receptor 2 (Homo sapiens) (UniProt O60603); experiment: Inhibition of human TLR2 at 1 uM relative to control
Sequence of Toll-like receptor 2 (Homo sapiens) (O60603 whole entry): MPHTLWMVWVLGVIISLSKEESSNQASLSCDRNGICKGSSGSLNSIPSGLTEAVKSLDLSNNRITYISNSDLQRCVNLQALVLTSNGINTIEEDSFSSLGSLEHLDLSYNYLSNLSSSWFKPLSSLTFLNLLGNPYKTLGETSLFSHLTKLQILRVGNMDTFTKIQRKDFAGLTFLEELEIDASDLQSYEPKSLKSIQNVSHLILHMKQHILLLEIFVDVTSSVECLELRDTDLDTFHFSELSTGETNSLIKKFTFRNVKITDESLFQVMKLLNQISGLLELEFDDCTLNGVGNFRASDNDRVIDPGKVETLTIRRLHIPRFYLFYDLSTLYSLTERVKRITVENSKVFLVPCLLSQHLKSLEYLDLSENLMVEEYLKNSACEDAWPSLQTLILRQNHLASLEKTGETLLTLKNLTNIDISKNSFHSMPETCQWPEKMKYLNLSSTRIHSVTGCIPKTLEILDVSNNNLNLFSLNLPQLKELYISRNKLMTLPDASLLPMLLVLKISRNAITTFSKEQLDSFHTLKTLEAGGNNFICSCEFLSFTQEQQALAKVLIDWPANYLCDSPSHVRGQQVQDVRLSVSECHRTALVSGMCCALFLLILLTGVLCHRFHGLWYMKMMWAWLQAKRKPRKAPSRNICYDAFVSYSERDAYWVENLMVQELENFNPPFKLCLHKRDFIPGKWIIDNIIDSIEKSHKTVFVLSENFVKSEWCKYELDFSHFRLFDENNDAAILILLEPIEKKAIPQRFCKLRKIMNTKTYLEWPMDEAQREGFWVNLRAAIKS

[7] = Solubility of compound in phosphate buffer at pH 7.2 to 7.4; format: physicochemical

Sequence of Toll-like receptor 4 (Homo sapiens) (O00206 whole entry, the tested form may be a part): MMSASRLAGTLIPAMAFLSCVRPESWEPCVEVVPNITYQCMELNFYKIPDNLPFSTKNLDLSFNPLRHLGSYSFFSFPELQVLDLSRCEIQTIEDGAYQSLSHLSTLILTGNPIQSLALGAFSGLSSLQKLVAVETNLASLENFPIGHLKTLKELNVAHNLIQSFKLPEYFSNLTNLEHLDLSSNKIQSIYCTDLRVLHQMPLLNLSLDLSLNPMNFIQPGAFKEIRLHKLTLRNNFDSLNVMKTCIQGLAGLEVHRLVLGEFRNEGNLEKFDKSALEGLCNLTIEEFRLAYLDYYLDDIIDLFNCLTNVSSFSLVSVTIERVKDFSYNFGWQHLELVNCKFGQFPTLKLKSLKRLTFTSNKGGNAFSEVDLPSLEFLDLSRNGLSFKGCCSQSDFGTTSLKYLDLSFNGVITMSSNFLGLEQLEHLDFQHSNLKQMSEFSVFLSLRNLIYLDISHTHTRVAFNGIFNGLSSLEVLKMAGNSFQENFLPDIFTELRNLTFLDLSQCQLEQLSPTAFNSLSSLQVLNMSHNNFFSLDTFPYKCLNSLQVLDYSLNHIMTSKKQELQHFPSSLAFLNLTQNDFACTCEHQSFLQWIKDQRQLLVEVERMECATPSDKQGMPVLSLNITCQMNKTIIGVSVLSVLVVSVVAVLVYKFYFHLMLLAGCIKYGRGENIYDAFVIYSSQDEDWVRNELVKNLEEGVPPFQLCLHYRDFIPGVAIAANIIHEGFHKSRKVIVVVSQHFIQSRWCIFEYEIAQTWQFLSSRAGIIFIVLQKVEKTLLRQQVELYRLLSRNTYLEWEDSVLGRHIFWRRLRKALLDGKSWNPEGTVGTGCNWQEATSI

With `N#Cc1ccc2nc(Cl)n(-c3ccc(Cl)c(NS(=O)(=O)c4c(F)cccc4F)c3)c(=O)c2c1` the inhibition [1] was < 10%, the inhibition [2] was 20.2% and the inhibition [3] was < 10%. It also gave an inhibition [4] of 73.6%, a half-life at 1.25 µM [5] of 26.5 min and an inhibition [6] of 8.5%. The solubility [7] was 48.8 µg/mL (≈ 96.2 µM).
With `CS(=O)(=O)c1ccc2nc(Cl)n(-c3ccc(Cl)c(NS(=O)(=O)c4ccc5ncsc5c4)c3)c(=O)c2c1` the inhibition [1] was 15.8%, the inhibition [2] was < 10% and the inhibition [3] was 10.5%. For the same compound, the inhibition [4] was 87.2%, the half-life at 1.25 µM [5] was 22.8 min and the inhibition [6] was 52.3%. For the same compound, the solubility [7] was 21.5 µg/mL (≈ 37 µM).
With `CS(=O)(=O)c1ccc2nc(Cl)n(-c3ccc(Cl)c(NS(=O)(=O)c4c(F)cccc4F)c3)c(=O)c2c1` the inhibition [1] was 10%, the inhibition [2] was 21.9% and the inhibition [3] was 11.4%. For the same compound, the inhibition [4] was 80.8%, the half-life at 1.25 µM [5] was 30.1 min and the inhibition [6] was 12.8%. The solubility [7] was 44.6 µg/mL (≈ 79.6 µM).

— ChEMBL document CHEMBL6074678, “Selectively Antagonizing the NOD1-Mediated Inflammatory Signaling Pathway Mitigates the Gastric Inflammation Induced by Helicobacter pylori Infection” (J Med Chem, 2024)
